# In patent US20130323165A1, “Magnetic Nanoplatforms for Theranostic and Multi-Modal Imaging Applications” (NORTHEASTERN UNIVERSITY, priority 2010, published 2013):
# Counter-ions that a name gives are not always drawn.
# Assays:
# [1] = system: B16-F10 melanoma metastasis; assay: Tumor metastases (melanin pigmentation, pleural cavity)
# B16-F10 melanoma tumor = conditions: 1.35 mg/kg
# [2] = Drug loading into MAG-C cationic liposomes by HPLC; assay type: physicochemical; conditions: 3 mol % drug
# Protocol: The influence of MAG-C on the efficiency of loading chemotherapeutic agents (hydrophilic and lipophilic) in cationic liposomes was evaluated by HPLC. […] The inclusion of PEG in MAG-C cationic liposomes improved incorporation of vinblastine sulfate from […]. We also evaluated the effect of MAG-C on the incorporation efficiency of the hydrophilic drug, dacarbazine at 3 mol %.
# [3] = cationic liposomes without MAG-C
Compound,number of tumor nodules in the livers ([1]; compared to the saline control),mice with evidence of metastasis within the pleural cavity ([1]; free drug),tumor volumes compared to the untreated control group (B16-F10 melanoma tumor),incorporation (loading) efficiency ([2]; cationic liposomes with 2.5 mg/ml MAG-C (SPION)),"incorporation (loading) efficiency [2, 3] [%]",incorporation (loading) efficiency ([2]; MAG-C cationic liposomes with PEG included) [%],incorporation (loading) efficiency ([2]; cationic liposomes with 0.5 mg/ml MAG-C (SPION))
CC[C@]1(O)C[C@@H]2CN(CCc3c([nH]c4ccccc34)[C@@](C(=O)OC)(c3cc4c(cc3OC)N(C)[C@H]3[C@@](O)(C(=O)OC)[C@H](OC(C)=O)[C@]5(CC)C=CCN6CC[C@]43[C@@H]65)C2)C1 [vinblastine sulfate],less,5/5,no significant difference in the tumor volumes,no further decrease was observed,3273.6,,
COc1cc([C@@H]2c3cc4c(cc3[C@@H](O[C@@H]3O[C@@H]5CO[C@@H](C)O[C@H]5[C@H](O)[C@H]3O)[C@H]3COC(=O)[C@H]23)OCO4)cc(OC)c1O [etoposide],,,,,7876.03,7873.73,did not alter the incorporation efficiency
